Measurements taken from patent US12582633B2 (priority 2020, dated 2026).
In brackets after ≈: the same amount, converted by molar mass. Several values for one entry are separate records, joined by “and”; a condition that tells them apart may be missing. Equal values may be shown once.

Columns and labels:
SARS-CoV-2 = assay: microbe, parasite or virus in culture; format: cell-based

For `O=C1CN(/N=C/c2ccc(-c3ccc([N+](=O)[O-])cc3)o2)C(O)=N1` [dantrolene], the “Day 2 Read (CPE)” value (SARS-CoV-2) was 3/3 wells had No CPE and 3/3 wells had > 90% CPE and 3/3 wells had sparse, the “Day 4 Read (CPE)” value (SARS-CoV-2) was 3/3 wells had No CPE and 2/3 wells had > 90% CPE and 1/3 wells had > 90% CPE and 3/3 wells had > 90% CPE and 3/3 wells had sparse and the “Day 6 Read (CPE)” value (SARS-CoV-2) was 3/3 wells had No CPE and 2/3 wells had > 90% CPE and 1/3 wells had > 90% CPE and 3/3 wells had > 90% CPE and 3/3 wells had sparse. The MIC (SARS-CoV-2; Severe acute respiratory syndrome coronavirus 2, read-out: minimum inhibitory concentration) was 20 µM (≈ 6.29 µg/mL) and the “cell viability of uninfected Vero E6 cells” value (Vero E6 cells) was “good cell viability”.
